Key:
Assay type in all cases: in vivo
[1] = system: Housefly [Musca domestica]; assay: Housefly insecticidal test (HF); conditions: per 25 female houseflies, 48 hours
Method: Test compounds were diluted in acetone and aliquots pipetted onto the bottom of aluminum dishes. To ensure even spreading of the chemical on the bottom of the dishes, 1 ml of acetone containing 0.01% peanut oil was also added to each dish. After all solvents had evaporated, the dishes were placed in circular cardboard cages containing 25 female houseflies, 1-2 days old. The cages were covered on the bottom with cellophane and on the top with tulle netting, and each contained a sugar-water saturated cotton plug for maintenance of the flies. Mortality was recorded after 48 hours. Test levels ranged from 100μg/25 female houseflies downward.

[2] = system: Tobacco Budworm [Heliothis virescens (Fabricius)] eggs; assay: Tobacco budworm egg test (TBW-E); conditions: percent in solution
From the text: Eggs: Paper towel patches of 2-day old eggs of the tobacco budworm were dipped in acetone solutions of the test compound and placed in petri dishes containing a portion of larval rearing medium. […] Test concentrations ranged from 0.1% downward.

[3] = system: Cabbage Looper [Trichoplusia ni (Hubner)]; assay: Cabbage looper test (CL); conditions: second-instar larvae, 3-5 days, percent in solution
Method: Test compounds were diluted in a 50-50 acetone-water solution. Cotyledons of hyzini squash (Calabacita abobrinha), approximately 1×1.5 inches, were immersed in the test solutions for 2-3 seconds and placed on a wire screen to dry. The dried leaves were placed in petri dishes containing a moistened piece of filter paper and infested with 5 second-instar cabbage looper larvae. The dishes were placed in a high humidity chamber. Mortality of the larvae was recorded 3-5 days later. Test concentrations ranged from 0.1% downward. The LC-50 value is expressed below in Table 3 under the heading "CL" in terms of percent of the test compound in solution.

SMILES	LC50 HF [1] [µg]	LC50 TBW E [2] [%]	LC50 CL [3] [%]
CC(C)C(=Nc1ccc(F)c(Cl)c1)OCc1cc(F)cc(Oc2ccc(F)cc2)c1 [Compound 327]	> 100	> 0.1	0.005
COc1ccc(N=C(OCc2cccc(Oc3ccc(F)cc3)c2)C(C)C)cc1Cl [Compound 110]	26	0.04	0.007
CC(Cl)C(=Nc1ccc(Cl)c(Cl)c1)OCc1cccc(Oc2ccccc2)c1 (centres unmarked) [Compound 27]	> 100	> 0.1	0.04
CC(C)C(=Nc1ccc(F)c(Cl)c1)OCc1coc(Cc2ccccc2)c1 [Compound 474]	8	> 0.1	0.0012
Cc1cccc(N=C(OCc2cccc(Oc3ccccc3)c2)C(C)C)c1C [Compound 249]	36	0.0365	0.0025
CC(C)C(=Nc1cccc(C(F)(F)F)c1)OCc1ccc(OCc2ccc(F)cc2)cc1 [Compound 488]	> 100	> 0.1	0.025
CC(C)C(=Nc1cccc(Br)c1)OCc1cccc(Oc2ccc(F)cc2)c1 [Compound 229]	20	> 0.1	0.0005
COC(C)C(=Nc1ccc(Cl)cc1)OCc1cccc(Oc2ccccc2)c1 (centres unmarked) [Compound 22]	15	0.08	0.004
CC(C)C(=Nc1ccc(Br)c(Br)c1)OCc1cccc(Oc2ccccc2)c1 [Compound 252]	34	0.04	0.0035
CCC(C)C(=Nc1ccc(Cl)cc1)OCc1cccc(Oc2ccccc2)c1 (centres unmarked) [Compound 26]	> 100	> 0.1	0.007
Cc1cccc(N=C(OCc2cccc(Oc3ccccc3)c2)C(C)C)c1C [Compound 148]	18	0.025	0.0025
FC(F)(F)c1cccc(N=C(OCc2cccc(Oc3ccccc3)c2)C2CC2)c1 [Compound 86]	65	> 0.01	0.013
CC(C)C(=Nc1c(F)c(F)c(F)c(F)c1F)OCc1cccc(Oc2ccc(F)cc2F)c1 [Compound 232]	> 100	> 0.1	0.004
CC(C)C(=Nc1ccc(OC(F)(F)F)c(Cl)c1)OCc1cc(F)cc(Oc2ccc(F)cc2)c1 [Compound 328]	> 100	> 0.1	0.03
CC(C)C(=Nc1ccc(F)c(Br)c1)OCc1cccc(Oc2ccc(Br)cc2)c1 [Compound 276]	39	0.1	0.002
CC(C)C(=Nc1ccc(F)c(F)c1)OCc1coc(Cc2ccccc2)c1 [Compound 485]	24	> 0.1	> 0.1
CC(C)C(=Nc1ccc2c(c1)OCO2)OCc1cccc(Oc2ccccc2F)c1 [Compound 190]	7.5	0.023	0.0004
CCOC(=O)c1ccc(N=C(OCc2cccc(Oc3ccccc3)c2)C(C)C)cc1Cl [Compound 104]	> 100	> 0.1	0.004
C=CCOc1cccc(COC(=Nc2ccc(Cl)c(Cl)c2)C(C)C)c1 [Compound 481]	> 100	> 0.1	0.015
COc1ccc(N=C(OCc2cccc(Oc3ccccc3)c2)C(C)C)c(C)c1 [Compound 149]	17	0.05	0.007

SMILES	LC50 HF [1] [µg]	LC50 TBW E [2] [%]	LC50 CL [3] [%]
CCC(C)C(=Nc1ccc(Cl)c(Cl)c1)OCc1cccc(Oc2ccc(F)cc2)c1 (centres unmarked) [Compound 211]	61	> 0.1	0.0017
CC(C)C(=Nc1ccc(F)c(Cl)c1)OCc1ccc(F)c(Br)c1 [Compound 473]	> 100	> 0.1	0.025
CC(C)C(=Nc1ccc(F)c(Cl)c1)OCc1cccc(OCc2ccccc2)c1 [Compound 472]	> 100	> 0.1	0.0025
CC(C)C(=Nc1ccc(F)cc1)OCc1cccc(Oc2ccc(F)cc2)c1 [Compound 197]	> 100	0.05	0.0004
Cc1ccc(N=C(OCc2cccc(Oc3ccccc3)c2)C(C)(C)C)cc1Cl [Compound 107]	> 100	> 0.1	0.007
CC(C)C(=Nc1ccc(F)c(F)c1)OCc1cccc(Oc2ccc(F)cc2F)c1 [Compound 214]	19	0.04	0.0003
CC(C)(C)C(=Nc1cccc(Br)c1)OCc1cccc(Oc2ccccc2)c1 [Compound 134]	> 100	> 0.1	0.015
CC(C)C(=Nc1ccc(F)cc1)OCc1cccc(Oc2cccc(Cl)c2)c1 [Compound 205]	50	> 0.1	0.004
CC(C)C(=Nc1ccc2c(c1)OCO2)OCc1ccc(F)c(Oc2ccc(Cl)cc2)c1 [Compound 313]	> 100	0.013	0.00025
CCC(CC)C(=Nc1ccc(Cl)cc1)OCc1cccc(Oc2ccc(F)cc2)c1 [Compound 290]	> 100	> 0.1	0.017
CC(C)C(=Nc1ccc(Cl)c(Cl)c1)OCc1cccc(Oc2ccc(F)cc2F)c1 [Compound 213]	> 100	> 0.1	0.00075
CC(Br)C(=Nc1ccc(F)c(Cl)c1)OCc1cccc(Oc2ccc(F)cc2)c1 (centres unmarked) [Compound 305]	> 100	> 0.1	0.048
CCOc1ccc(N=C(OCc2cccc(Oc3ccccc3)c2)C(C)(C)C)cc1 [Compound 164]	> 100	> 0.1	0.005
CCC(CC)C(=Nc1ccc(C(C)C)cc1)OCc1cccc(Oc2ccccc2)c1 [Compound 321]	> 100	> 0.1	0.05
CCC(=Nc1ccc(F)cc1F)OCc1cccc(Oc2ccccc2)c1 [Compound 59]	25	> 0.1	0.02
Cc1cc(Cl)ccc1N=C(OCc1cccc(Oc2ccccc2)c1)C(C)(C)C [Compound 109]	> 100	> 0.1	0.002
CC(C)C(=Nc1ccc(F)c(Cl)c1)OC(F)c1cccc(Oc2ccc(F)cc2)c1 (centres unmarked) [Compound 502]	80	–	–
CC(C)C(=Nc1cccc(Oc2ccccn2)c1)OCc1cccc(Oc2ccccc2)c1 [Compound 114]	92	–	< 0.1
FC(F)(F)c1ccc(Oc2ccc(COC(=Nc3ccc(Cl)cc3)C(Cl)Cl)cc2)nc1 [Compound 453]	> 100	–	0.1

— US5089623A, “Certain imidate insecticides” (Imperial Chemical Industries Plc, priority 1990, dated 1992)
